Assay results from the supplement of paper PMC10627819.

How the values were obtained:
Experiment in all cases: fitness (endpoint OD595 vs no drug) (fraction); higher = more growth
[1] = system: B. subtilis 168
How it was run: (§1)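 Fitness was measured as bacterial growth in 384-well plates inoculated at OD595 0.01 (30 µl, or 55 µl for S. pneumoniae). Media were TSB, LB Lennox or CY, at 37 °C. OD595 was read every 30 min for 14 h and background-subtracted against the first reading. Fitness is OD595 at the transition into stationary phase divided by the robust mean of no-drug control wells, capped at 1.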

[2] = system: S. aureus DSM 20231
How it was run: as §1

[3] = system: S. pneumoniae D39V
How it was run: as §1
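Also: OD595 on entry to stationary phase over no-drug wells; at most 1.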

CN(C)[C@@H]1C(O)=C(C(N)=O)C(=O)[C@@]2(O)C(O)=C3C(=O)c4c(O)ccc(Cl)c4[C@@](C)(O)[C@H]3C[C@@H]12 [Chlortetracycline] + CC1=C\[C@@H](O)CC(=O)Cc2nc(co2)C(=O)N2CCC=C2C(=O)O[C@H](C(C)C)[C@H](C)/C=C/C(=O)NC\C=C\1 [Virginiamycin M1]
Conditions	fitness
[1], first compound 0.0475 µg/mL, partner 0.0625 µg/mL	0.874
[1], first compound 0.0475 µg/mL, partner 0.125 µg/mL	0.898
[1], first compound 0.0475 µg/mL, partner 0.25 µg/mL	0.87
[1], first compound 0.095 µg/mL, partner 0.0625 µg/mL	0.823
[1], first compound 0.095 µg/mL, partner 0.125 µg/mL	0.725
[1], first compound 0.095 µg/mL, partner 0.25 µg/mL	0.759
[1], first compound 0.19 µg/mL, partner 0.0625 µg/mL	0.55
[1], first compound 0.19 µg/mL, partner 0.125 µg/mL	0.547
[1], first compound 0.19 µg/mL, partner 0.25 µg/mL	0.568
[2], first compound 0.012 µg/mL, partner 0.0625 µg/mL	0.565
[2], first compound 0.012 µg/mL, partner 0.125 µg/mL	0.533
[2], first compound 0.012 µg/mL, partner 0.25 µg/mL	0.567
[2], first compound 0.024 µg/mL, partner 0.0625 µg/mL	0.191
[2], first compound 0.024 µg/mL, partner 0.125 µg/mL	0.183
[2], first compound 0.024 µg/mL, partner 0.25 µg/mL	0.188
[2], first compound 0.048 µg/mL, partner 0.0625 µg/mL	0.0421
[2], first compound 0.048 µg/mL, partner 0.125 µg/mL	0.0556
[2], first compound 0.048 µg/mL, partner 0.25 µg/mL	0.0619
[3], first compound 0.012 µg/mL, partner 2 µg/mL	0.817
[3], first compound 0.024 µg/mL, partner 2 µg/mL	0.787
[3], first compound 0.048 µg/mL, partner 2 µg/mL	0.74
[3], first compound 0.375 µg/mL, partner 0.5 µg/mL	0.025
[3], first compound 0.375 µg/mL, partner 1 µg/mL	0.0379
[3], first compound 0.375 µg/mL, partner 2 µg/mL	0.0569
[3], first compound 0.75 µg/mL, partner 0.5 µg/mL	0.0422
[3], first compound 0.75 µg/mL, partner 1 µg/mL	0.0446
[3], first compound 0.75 µg/mL, partner 2 µg/mL	0.0829
[3], first compound 1.5 µg/mL, partner 0.5 µg/mL	0.0504
[3], first compound 1.5 µg/mL, partner 1 µg/mL	0.0561
[3], first compound 1.5 µg/mL, partner 2 µg/mL	0.0443

fitness, one replicate
Conditions	first compound 0.006 µg/mL	first compound 0.012 µg/mL	first compound 0.024 µg/mL	first compound 0.048 µg/mL
[2], partner 0.0625 µg/mL	0.776	–	–	–
[2], partner 0.125 µg/mL	0.785	–	–	–
[2], partner 0.25 µg/mL	0.809	–	–	–
[2], partner 0.5 µg/mL	–	0.495	0.146	0.0554
[2], partner 1 µg/mL	–	0.462	0.284	0.263
[3], partner 0.15 µg/mL	–	0.955	0.895	0.825
[3], partner 0.3 µg/mL	–	0.86	0.859	0.782
[3], partner 0.5 µg/mL	–	0.889	0.89	0.848
[3], partner 1 µg/mL	–	0.88	0.845	0.761

CN(C)[C@@H]1C(O)=C(C(N)=O)C(=O)[C@@]2(O)C(O)=C3C(=O)c4c(O)ccc(Cl)c4[C@@](C)(O)[C@H]3C[C@@H]12 [Chlortetracycline] + CO/N=C(\C(=O)N[C@@H]1C(=O)N2C(C(=O)O)=C(COC(C)=O)CS[C@H]12)c1csc(N)n1 [Cefotaxime]
fitness, one replicate
Conditions	partner 0.00775 µg/mL	partner 0.0155 µg/mL	partner 0.031 µg/mL	partner 0.039 µg/mL	partner 0.0625 µg/mL	partner 0.078 µg/mL	partner 0.125 µg/mL	partner 0.156 µg/mL	partner 0.25 µg/mL	partner 0.312 µg/mL
[1], first compound 0.0475 µg/mL	0.783	0.597	0.5	–	0.532	–	0.381	–	0.326	–
[1], first compound 0.095 µg/mL	0.703	0.536	0.38	–	0.458	–	0.283	–	0.186	–
[1], first compound 0.19 µg/mL	0.413	0.149	0.0377	–	0.135	–	0.0644	–	0.06	–
[2], first compound 0.006 µg/mL	–	–	–	0.775	–	0.689	–	0.677	–	0.635

Conditions	fitness
[1], first compound 0.0475 µg/mL, partner 0.5 µg/mL	0.326
[1], first compound 0.0475 µg/mL, partner 1 µg/mL	0.19
[1], first compound 0.0475 µg/mL, partner 2 µg/mL	0.147
[1], first compound 0.095 µg/mL, partner 0.5 µg/mL	0.199
[1], first compound 0.095 µg/mL, partner 1 µg/mL	0.0513
[1], first compound 0.095 µg/mL, partner 2 µg/mL	0.117
[1], first compound 0.19 µg/mL, partner 0.5 µg/mL	0.129
[1], first compound 0.19 µg/mL, partner 1 µg/mL	0.0806
[1], first compound 0.19 µg/mL, partner 2 µg/mL	0.111
[2], first compound 0.012 µg/mL, partner 0.039 µg/mL	0.533
[2], first compound 0.012 µg/mL, partner 0.078 µg/mL	0.608
[2], first compound 0.012 µg/mL, partner 0.156 µg/mL	0.561
[2], first compound 0.012 µg/mL, partner 0.312 µg/mL	0.44
[2], first compound 0.024 µg/mL, partner 0.312 µg/mL	0.271
[2], first compound 0.048 µg/mL, partner 0.039 µg/mL	0.258
[2], first compound 0.048 µg/mL, partner 0.078 µg/mL	0.137
[2], first compound 0.048 µg/mL, partner 0.156 µg/mL	0.125
[2], first compound 0.048 µg/mL, partner 0.312 µg/mL	0.108
[3], first compound 0.012 µg/mL, partner 0.0018 µg/mL	0.88
[3], first compound 0.012 µg/mL, partner 0.0035 µg/mL	0.94
[3], first compound 0.012 µg/mL, partner 0.007 µg/mL	0.885
[3], first compound 0.024 µg/mL, partner 0.0018 µg/mL	0.664
[3], first compound 0.024 µg/mL, partner 0.0035 µg/mL	0.641
[3], first compound 0.024 µg/mL, partner 0.007 µg/mL	0.629
[3], first compound 0.048 µg/mL, partner 0.0018 µg/mL	0.301
[3], first compound 0.048 µg/mL, partner 0.0035 µg/mL	0.251
[3], first compound 0.048 µg/mL, partner 0.007 µg/mL	0.238
[3], first compound 0.375 µg/mL, partner 0.0018 µg/mL	0.0683
[3], first compound 0.375 µg/mL, partner 0.0035 µg/mL	0.0612
[3], first compound 0.375 µg/mL, partner 0.007 µg/mL	0.0585
[3], first compound 0.75 µg/mL, partner 0.0018 µg/mL	0.086
[3], first compound 0.75 µg/mL, partner 0.0035 µg/mL	0.0734
[3], first compound 0.75 µg/mL, partner 0.007 µg/mL	0.0886
[3], first compound 1.5 µg/mL, partner 0.0018 µg/mL	0.0498
[3], first compound 1.5 µg/mL, partner 0.0035 µg/mL	0.0657
[3], first compound 1.5 µg/mL, partner 0.007 µg/mL	0.0651

CN(C)[C@@H]1C(O)=C(C(N)=O)C(=O)[C@@]2(O)C(O)=C3C(=O)c4c(O)ccc(Cl)c4[C@@](C)(O)[C@H]3C[C@@H]12 [Chlortetracycline] + O=C(O[C@@H]1Cc2c(O)cc(O)cc2O[C@@H]1c1cc(O)c(O)c(O)c1)c1cc(O)c(O)c(O)c1 [EGCG]
fitness
Conditions	partner 6.25 µg/mL	partner 12.5 µg/mL	partner 25 µg/mL	partner 50 µg/mL
[1], first compound 0.0475 µg/mL	0.911	–	0.303	–
[1], first compound 0.095 µg/mL	0.754	0.463	–	–
[1], first compound 0.19 µg/mL	0.484	0.214	0.0594	–
[2], first compound 0.012 µg/mL	–	0.595	0.549	–
[2], first compound 0.024 µg/mL	–	0.455	0.398	0.332
[2], first compound 0.048 µg/mL	–	0.138	0.108	0
[3], first compound 0.012 µg/mL	–	0.759	0.805	0.949
[3], first compound 0.024 µg/mL	–	0.444	0.454	0.672
[3], first compound 0.048 µg/mL	–	0.247	0.212	–
[3], first compound 0.375 µg/mL	–	0.07	0.0693	0.0612
[3], first compound 0.75 µg/mL	–	0.0431	0.0527	0.0692
[3], first compound 1.5 µg/mL	–	0.0475	0.0473	0.0718

[2], first compound 0.006 µg/mL, one replicate
Conditions	fitness
partner 12.5 µg/mL	0.65
partner 25 µg/mL	0.623
partner 50 µg/mL	0.673
